Reference: patent US20180353501A1 (Arvinas, Inc., priority 2017, published 2018)

Target: T1, p38α:PROTAC:VHL ternary complex (Homo sapiens, UniProt P40337+Q16539)
T1 construct: encodes a region spanning amino acids 2-360 of the human p38α kinase; made in house; host or cells: E. coli (BL21-CodonPlus(DE3)-RIPL for p38α; BL21(DE3) for GST-VBC)
Experiment: In vitro ternary complex pull-down with GST-VBC bait, purified p38α
Assay type: binding
Procedure: FIGS. 14A, 14B, and 14C. p38α selectivity is discriminated by ternary complex formation. (A) Only p38α incubated in the presence of exemplary compound 50 can be immunoprecipitated with GST-tagged VHL/EloB/EloC (VBC). Immobilized VBC was used as a bait to trap purified p38α in the presence of vehicle (DMSO), compound 50, or compound 46 (represented in micromolar concentrations). The rightmost lane represents a 1:25 dilution of initial input protein used in each pull-down. (B) Proximity-based AlphaLISA assay detects significant p38α:compound 50:VHL ternary complex, but no p38α:compound 46:VHL ternary complex. His-p38α and GST-VBC were incubated in the presence of increasing concentrations of compound 50 and compound 46 and the extent of ternary complex formation was assessed by excitation with incident light with 1=680 nm and capture of the emission light at 1=615 nm. Error bars represent the SD from quadruplicate experiments. […] FLAGimmunoprecipitated lysates were separated by SDS-PAGE and assessed via western blots detecting HA (Ub). […]
Following this logic, to the present disclosure seeks to describe the selectivity of exemplary compound 50 for p38α at the ternary complex level through the use of an in vitro ternary complex pull-down assay. […] Similarly, exemplary PROTACs 46 and 50 were evaluated in a proximity-based luminescence assay (AlphaLISA) to detect ternary complex formation. […]

T1 sequence (Q16539 2-360 limits assumed): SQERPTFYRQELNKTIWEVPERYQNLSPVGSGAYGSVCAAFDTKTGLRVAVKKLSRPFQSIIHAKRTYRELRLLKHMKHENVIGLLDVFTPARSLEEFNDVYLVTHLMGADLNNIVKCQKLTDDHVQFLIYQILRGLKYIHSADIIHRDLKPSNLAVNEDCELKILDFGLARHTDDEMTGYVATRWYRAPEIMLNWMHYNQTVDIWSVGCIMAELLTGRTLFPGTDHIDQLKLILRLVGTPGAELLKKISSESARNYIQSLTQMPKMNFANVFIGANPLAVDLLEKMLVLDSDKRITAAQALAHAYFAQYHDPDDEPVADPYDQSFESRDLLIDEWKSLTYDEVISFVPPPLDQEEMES
T1 sequence (P40337 whole entry, the tested form may be a part): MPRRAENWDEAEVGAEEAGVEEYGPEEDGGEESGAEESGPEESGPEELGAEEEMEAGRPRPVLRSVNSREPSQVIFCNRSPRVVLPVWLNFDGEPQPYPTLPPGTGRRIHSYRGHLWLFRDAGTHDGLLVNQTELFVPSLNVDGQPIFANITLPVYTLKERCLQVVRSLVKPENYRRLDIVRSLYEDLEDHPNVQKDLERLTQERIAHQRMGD
T1 sequence (Q15370 whole entry partner, the tested form may be a part): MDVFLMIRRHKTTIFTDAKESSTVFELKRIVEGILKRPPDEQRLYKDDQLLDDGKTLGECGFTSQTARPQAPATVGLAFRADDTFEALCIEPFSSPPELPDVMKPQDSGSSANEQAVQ
T1 sequence (Q15369 whole entry partner, the tested form may be a part): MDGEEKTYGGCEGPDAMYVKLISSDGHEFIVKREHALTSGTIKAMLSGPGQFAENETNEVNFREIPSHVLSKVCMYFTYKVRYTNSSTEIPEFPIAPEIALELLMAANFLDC

| Structure (SMILES) | enrichment of purified p38α on GST-VBC bait |
| --- | --- |
| COc1cc2c(Oc3ccc(NC(=O)C4(C(=O)Nc5ccc(F)cc5)CC4)cc3F)ccnc2cc1OCCOCCOCCOc1cc(-c2scnc2C)ccc1CNC(=O)[C@@H]1C[C@@H](O)CN1C(=O)[C@H](C(C)C)N1Cc2ccccc2C1=O [compound 46] | no detectable enrichment |
| COc1cc2c(Oc3ccc(NC(=O)C4(C(=O)Nc5ccc(F)cc5)CC4)cc3F)ccnc2cc1OCCCCOCCCCOCC(=O)N[C@H](C(=O)N1C[C@H](O)C[C@H]1C(=O)NCc1ccc(-c2scnc2C)cc1)C(C)(C)C [compound 50, N-(3-fluoro-4-((7-(4-(4-(2-(((S)-1-((2S,4R)-4-hydroxy-2-((4-(4-methylthiazol-5-yl)benzyl)carbamoyl)pyrrolidin-1-yl)-3,3-dimethyl-1-oxobutan-2-yl)amino)-2-oxoethoxy)butoxy)buto-xy)-6-methoxyquinolin-4-yl)oxy)phenyl)-N-(4-fluorophenyl)cyclopropane-1,1-dicarboxa-mide] | substantial enrichment of purified p38α |
